Key:
[1] = Acute toxicity, single intragastric administration, Kerber method; conditions: mouse, in vivo, po; white outbred mice 20-22 g, single intragastric administration, Kerber method
Excerpt: (§1) The acute toxicity of the compound 1a was studied in white outbred mice weighting 20-22 g following single intragastric administration using Kerber method.

white outbred mice = assay: as above; conditions: mouse, in vivo
Excerpt: as §1

[2] = system: MPTP-induced parkinsonism; assay: Antiparkinson activity in mice after single administration of MPTP (locomotor activity, TruScan); type: in vivo; conditions: for general movement activity (number of movement acts) / movement activity / movement distance / movement speed / number of explored holes / number of rearings / time of exploratory activity: single MPTP 30 mg/kg i.p., 1.5 h after MPTP, 3 min; for antiparkinson activity (in words): mice, single administration of MPTP, doses 10 and/or 20 mg/kg per os as stated in the sentence
Experimental: (§2) Parkinsonism was induced by single and multiple intraperitoneal administration of MPTP in 30 mg/kg doses in male mice of C57B1/6 strain and Wistar rats.
(§3) Antiparkinson activity of the agents was studied by the degree of hypokinesia and locomotor activity using Truscan apparatus (USA) or by mortality percentage.
(§4) Experiments were carried out in male mice of C57B1/6 strain in groups of 10 mice each. Parkinson syndrome was induced by intraperitoneal administration of 30 mg/kg dose of MPTP, saline was administered to intact control group. The agent was administered per os 15 minutes after the reproduction of Parkinson syndrome. Hypokinesia was evaluated 1.5 hours after MPTP injection by the degree of locomotor activity using TruScan apparatus (USA) during 3 minutes.
as §4, with “agents in 20 mg/kg doses were” for “agent was”
as §4, with “agent in 10 mg/kg and 20 mg/kg doses were” for “agent was”

[3] = system: MPTP-induced parkinsonism; assay: Antiparkinson activity in mice after 3 days administration of MPTP (locomotor activity, TruScan); type: in vivo; conditions: for general movement activity (number of movement acts) / movement activity / movement distance / movement speed / number of explored holes / number of rearings / time of exploratory activity: 3 min
Experimental: as §2, §3
Experiments were carried out in male mice of C57B1/6 strain in groups of 10 mice each. Parkinson syndrome was induced by intraperitoneal administration of 30 mg/kg dose of MPTP during 3 days. The agent ((1R,2R,6S)-1a was administered per os in 20 mg/kg and 30 mg/kg doses 24 hours after the last MPTP injection. Hypokinesia was evaluated 1 hour after the agent administration by the degree of locomotor activity using TruScan apparatus (USA) during 3 minutes.
Experiments were carried out in male mice of C57B1/6 strain in groups of 10 mice each. Parkinson syndrome was induced by intraperitoneal administration of 30 mg/kg dose of MPTP daily during 3 days. Agent (1R,2R,6S)-1b with ee 60% in 20 mg/kg dose was administered per os 24 hours after the last MPTP injection. Hypokinesia was evaluated 1.5 hours after MPTP injection by the degree of locomotor activity using TruScan apparatus (USA) during 3 minutes.

[4] = system: MPTP-induced parkinsonism; assay: Antiparkinson activity in mice in 10 days administration of MPTP and the agent (mortality); type: in vivo; conditions: for Mortality, %: C57B1/6 mice, MPTP 30 mg/kg i.p. daily 10 days, day 11
Experimental: as §3
Experiments were carried out in male mice of C57B1/6 strain in groups of 10 mice each. Parkinson syndrome was induced by intraperitoneal administration of 30 mg/kg dose of MPTP daily during 10 days. The agent ((1R,2R,6S)-1a in 20 mg/kg dose and levodopa (the drug of comparison) in 10 mg/kg dose were administered per os 4 hours after MPTP injection daily during 10 days. The effect was evaluated by the number of surviving animals on the 11 day of the experiment.

[5] = system: MPTP-induced parkinsonism; assay: Antiparkinson activity in rats in 30 days administration of MPTP and the agent (locomotor activity, TruScan); type: in vivo; conditions: for general movement activity (number of movement acts) / movement activity / movement distance / movement speed / number of explored holes / number of rearings / time of exploratory activity: Wistar rats, MPTP 30 mg/kg (table; text 40 mg/kg) i.p. daily 30 days, day 30, 3 min
Experimental: as §2, §3
Experiments were carried out in male Wistar rats in groups of 10 mice each. Parkinson syndrome was induced by intraperitoneal administration of 40 mg/kg dose of MPTP daily during 30 days. Saline was administered to intact control group. The agent ((1R,2R,6S)-1a in 20 mg/kg dose and levodopa (the drug of comparison) in 10 mg/kg dose were administered per os 4 hours after MPTP injection daily during 30 days. Hypokinesia was evaluated on 30 day of experiment by the degree of locomotor activity using TruScan apparatus (USA) during 3 minutes.

[6] = C57B1/6 mice, agent 10 mg/kg per os 15 min after
[7] = C57B1/6 mice, agent 20 mg/kg per os 15 min after
[8] = C57B1/6 mice, MPTP 30 mg/kg i.p. 3 days, agent 20 mg/kg per os 24 h after last MPTP, 1 h after agent
[9] = C57B1/6 mice, MPTP 30 mg/kg i.p. 3 days, agent 30 mg/kg per os 24 h after last MPTP, 1 h after agent
[10] = agent 20 mg/kg per os 4 h after MPTP daily
[11] = Table 5: C57B1/6 mice, agents 20 mg/kg per os 15 min after
[12] = Table 6: C57B1/6 mice, agent 10 mg/kg per os 15 min after
[13] = Table 6: C57B1/6 mice, agent 20 mg/kg per os 15 min after
[14] = Table 7: C57B1/6 mice, MPTP 30 mg/kg i.p. daily 3 days, agent 20 mg/kg per os 24 h after last MPTP
[15] = L-DOPA 10 mg/kg per os 4 h after MPTP daily

C=C(C)C1CC=C(C)C(O)C1O (stereo not drawn) [1a, 3-methyl-6-(1-methylethenyl)cyclohex-3-ene-1,2-diol]
LD50 [1]: 4250 mg/kg | acute toxicity (in words) (white outbred mice): low toxicity

C=C(C)[C@@H]1CC=C(C)[C@@H](O)[C@@H]1O [(1R,2R,6S)-1a with ee 60%, (1R,2R,6S)-3-methyl-6-(1-methylethenyl)cyclohex-3-ene-1,2-diol]
general movement activity (number of movement acts) [2, 6]: 77.2 ± 5 | movement activity [2, 6]: 57 ± 5.3 s | movement distance [2, 6]: 257.3 ± 29.5 cm | movement speed [2, 6]: 2.1 ± 0.25 cm/s | number of explored holes [2, 6]: 7.7 ± 1.07 | number of rearings [2, 6]: 5.8 ± 0.6 | time of exploratory activity [2, 6]: 3.6 ± 0.7 s | general movement activity (number of movement acts) [2, 7]: 80.7 ± 4 | movement activity [2, 7]: 59 ± 4 s | movement distance [2, 7]: 276.5 ± 24 cm | movement speed [2, 7]: 2.25 ± 0.2 cm/s | number of explored holes [2, 7]: 7.6 ± 1.7 | number of rearings [2, 7]: 8.5 ± 2 | time of exploratory activity [2, 7]: 4.4 ± 1 s | antiparkinson activity (in words) [2]: remarkable antiparkinson activity | general movement activity (number of movement acts) [3, 8]: 81.9 ± 3.7 | movement activity [3, 8]: 70.1 ± 3.9 s | movement distance [3, 8]: 351.8 ± 26.4 cm | movement speed [3, 8]: 2.9 ± 0.2 cm/s | number of explored holes [3, 8]: 8.8 ± 1.0 | number of rearings [3, 8]: 11.1 ± 0.9 | time of exploratory activity [3, 8]: 3.9 ± 0.5 s | general movement activity (number of movement acts) [3, 9]: 81.8 ± 2.6 | movement activity [3, 9]: 66.8 ± 3.7 s | movement distance [3, 9]: 335.5 ± 28.9 cm | movement speed [3, 9]: 2.7 ± 0.2 cm/s | number of explored holes [3, 9]: 3.8 ± 0.6 | number of rearings [3, 9]: 13 ± 1.7 | time of exploratory activity [3, 9]: 1.6 ± 0.3 s | Mortality, % [4, 10]: 10% | effect on mortality (in words) ([4]; mice, 20 mg/kg, 10 days of administration of the agents and MPTP): considerably reduces mortality | comparison with levodopa (in words) ([4]; mice, mortality test, agent 20 mg/kg vs levodopa 10 mg/kg): as good as the drug of comparison levodopa | general movement activity (number of movement acts) [5, 10]: 81.89 ± 5.5 | movement activity [5, 10]: 62.56 ± 5.2 s | movement distance [5, 10]: 305.58 ± 30.38 cm | movement speed [5, 10]: 2.5 ± 0.25 cm/s | number of explored holes [5, 10]: 4.3 ± 0.73 | number of rearings [5, 10]: 10.67 ± 1.18 | time of exploratory activity [5, 10]: 1.75 ± 0.5 s | antiparkinson activity (in words) ([5]; rats, 20 mg/kg, 30 days administration of MPTP and the agent): remarkable antiparkinson activity | comparison with levodopa (in words) ([5]; rats, 30 days, agent 20 mg/kg vs levodopa 10 mg/kg): as good as the drug of comparison levodopa

C=C(C)[C@@H]1CC=C(C)[C@@H](O)[C@@H]1O [(1R,2R,6S)-1a with ee 94%, (1R,2R,6S)-3-methyl-6-(1-methylethenyl)cyclohex-3-ene-1,2-diol]
general movement activity (number of movement acts) [2, 11]: 78.6 ± 5.0 | movement activity [2, 11]: 64.0 ± 5.5 s | movement distance [2, 11]: 332.6 ± 39.6 cm | movement speed [2, 11]: 2.7 ± 0.3 cm/s | number of explored holes [2, 11]: 3.2 ± 0.9 | number of rearings [2, 11]: 13.1 ± 2.5 | time of exploratory activity [2, 11]: 1.5 ± 0.4 s

C=C(C)[C@@H]1CC=C(C)[C@@H](O)[C@@H]1O [(1R,2R,6S)-1b with ee 60%, diacetate (1R,2R,6S)-3-methyl-6-(1-methylethenyl)cyclohex-3-ene-1,2-diol]
general movement activity (number of movement acts) [2, 12]: 69.9 ± 6.7 | movement activity [2, 12]: 51.5 ± 7.5 s | movement distance [2, 12]: 244.4 ± 4.5 cm | movement speed [2, 12]: 2.0 ± 0.4 cm/s | number of explored holes [2, 12]: 3.4 ± 1.1 | number of rearings [2, 12]: 6.4 ± 1.6 | time of exploratory activity [2, 12]: 1.3 ± 0.5 s | general movement activity (number of movement acts) [2, 13]: 84.8 ± 4.4 | movement activity [2, 13]: 58.8 ± 4.5 s | movement speed [2, 13]: 1.9 ± 0.4 cm/s | number of explored holes [2, 13]: 3.2 ± 0.5 | number of rearings [2, 13]: 10.8 ± 1.7 | time of exploratory activity [2, 13]: 2.0 ± 0.3 s | general movement activity (number of movement acts) [3, 14]: 83.9 ± 3.5 | movement activity [3, 14]: 64.1 ± 5.0 s | movement distance [3, 14]: 310.0 ± 35.6 cm | movement speed [3, 14]: 2.5 ± 0.3 cm/s | number of explored holes [3, 14]: 6.0 ± 1.0 | number of rearings [3, 14]: 10.4 ± 1.5 | time of exploratory activity [3, 14]: 3.2 ± 0.8 s | antiparkinson activity (in words) ([3]; mice, 3 days administration of MPTP, doses 20 (and 30) mg/kg per os as stated in the sentence): remarkable antiparkinson activity

C=C(C)[C@H]1CC=C(C)[C@H](O)[C@H]1O [(1S,2S,6R)-1a with ee 97%, (1S,2S,6R)-3-methyl-6-(1-methylethenyl)cyclohex-3-ene-1,2-diol]
general movement activity (number of movement acts) [2, 11]: 57.9 ± 6.0 | movement activity [2, 11]: 34.9 ± 4.3 s | movement distance [2, 11]: 147.8 ± 20.3 cm | movement speed [2, 11]: 1.13 ± 0.15 cm/s | number of explored holes [2, 11]: 2.5 ± 0.9 | number of rearings [2, 11]: 4.4 ± 1.4 | time of exploratory activity [2, 11]: 1.2 ± 0.6 s | antiparkinson activity (in words) [2]: remarkable antiparkinson activity

N[C@@H](Cc1ccc(O)c(O)c1)C(=O)O [L-DOPA, reference compound]
Mortality, % [4, 15]: 20% | general movement activity (number of movement acts) [5, 15]: 86 ± 3.86 | movement activity [5, 15]: 65.09 ± 2.92 s | movement distance [5, 15]: 316.77 ± 16.2 cm | movement speed [5, 15]: 2.57 ± 0.13 cm/s | number of explored holes [5, 15]: 4.63 ± 0.56 | number of rearings [5, 15]: 9.63 ± 1.16 | time of exploratory activity [5, 15]: 1.66 ± 0.25 s

From US8809391B2, “Agent for treating Parkinson's disease” (OOO “Tomskaya Farmatsevticheskaya Fabrika”, priority 2009, dated 2014)
